The results in this text go back to patent publication EP4759825A1, “PEPTIDE FRAGMENT AND USE THEREOF” (Toagosei Co., Ltd., priority 2023, dated 2026).

FAM = 5(6)-carboxyfluorescein

The test has as its system NSC-34 cells. Briefly: Evaluation of cell membrane permeability (flow cytometer, mean fluorescence intensity of cells cultured with the construct). It counts as cell-based, mouse. Conditions: mean fluorescence intensity (FL2 detector), 10 µM construct or FAM, 0.5% DMSO, 20 hours at 37°C, 5% CO2. Here is the method: As the eukaryotic cells, NSC-34 cells (mouse motor neuron-like hybrid cell line) were used and the cell membrane permeability of the prepared construct was evaluated.
The NSC-34 cell was cultured in 10% fetal bovine serum (FBS)-containing Dulbecco's modified Eagle's medium (DMEM (Cat No. 044-29765, manufactured by FUJIFILM Wako Pure Chemical Corporation)), which is a culture medium.
The NSC-34 cell that adhered to a culture plate was cleaned with PBS and then, a 0.25%-trypsin/EDTA solution was added thereto, and incubation was performed for three minutes at 37°C. […]
Regarding the obtained cells (cell pellet), the cell membrane permeability was analyzed using a flow cytometer. […]
Using the aforementioned flow cytometer, gating based on forward scatter (FSC) and side scatter (SSC) was performed to set a gate about a cell group to be analyzed, and the fluorescence intensity was measured about the cell group in this gate. Note that the number of cells of the cell group to be analyzed was set to about 10000, and the analysis was performed. The fluorescence intensity was measured using a fluorescence detector FL2 of the flow cytometer (optimum detection wavelength around 543 nm) capable of detecting the fluorescence wavelength of FAM. […]

5(6)-carboxyfluorescein [Example 6] gave an MFI of 8.83.
In turn, “Ac-KKRTLRKSNRKKR-FAM (Ac-KKRTLRKSNRKKR-{FAM}) [Example 5]” showed an MFI of 22.4.
